The source of these data is patent US10617680B2 (CELGENE QUANTICEL RESEARCH, INC., priority 2017, dated 2020).

The IC50 is the concentration that gives 50% inhibition.

CBP, sequence (Q92793 1081-1197): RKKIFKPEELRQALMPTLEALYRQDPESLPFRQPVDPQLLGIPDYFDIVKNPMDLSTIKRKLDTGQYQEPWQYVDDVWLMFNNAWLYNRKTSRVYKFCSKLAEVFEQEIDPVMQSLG

The assay has as its target CBP (Homo sapiens (Human), UniProt Q92793). As to the kind of experiment: In vitro CBP inhibition (AlphaScreen, biotinylated H4-tetraacetyl peptide). Conditions: AlphaScreen, Table 29; read-out: CBP IC50. Type of assay: binding. In outline:
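His-tagged CBP expressed in E. coli (50 nM final) incubated with biotinylated H4K5/8/12/16(Ac) peptide (20 nM final) in 50 mM HEPES pH 7.3, 10 mM NaCl, 0.25 mM TCEP, 0.1% BSA, 0.005% Brij-35, 0.4% DMSO, 20 min at room temp.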
For the compound `Cn1cc(-c2cnn(-c3ccccc3-c3nnn[nH]3)c2)c(C2CC2)cc1=O` [Example 301, 4-Cyclopropyl-1-methyl-5-{1-[2-(1H-tetrazol-5-yl)-phenyl]-1H-pyrazol-4-yl}-1H-pyridin-2-one], the IC50 was below 500 nM.
Under `Cn1cc(-c2cnn(-c3ccccc3C(=O)NS(C)(=O)=O)c2)c(C2CC2)cc1=O` [Example 302, N-{2-[4-(4-Cyclopropyl-1-methyl-6-oxo-1,6-dihydro-pyridin-3-yl)-pyrazol-1-yl]-benzoyl}-methanesulfonamide] stands below 500 nM.
Consider `CCS(=O)(=O)NC(=O)c1ccccc1-n1cc(-c2cn(C)c(=O)cc2C2CC2)cn1` [Example 303, Ethanesulfonic acid 2-[4-(4-cyclopropyl-1-methyl-6-oxo-1,6-dihydro-pyridin-3-yl)-pyrazol-1-yl]-benzoylamide], for which the IC50 was below 500 nM.
For `CN(C)S(=O)(=O)NC(=O)c1ccccc1-n1cc(-c2cn(C)c(=O)cc2C2CC2)cn1` [Example 304, N-[(dimethylamino)sulfonyl]-{2-[4-(4-cyclopropyl-1-methyl-6-oxo(3-hydropyridyl))pyrazolyl]phenyl}carboxamide], the IC50 was below 500 nM.
For `COc1ccc(C#N)cc1-n1cc(-c2cn(C)c(=O)cc2-c2ccn(C)c(=O)c2)cn1` [Example 305, 3-(4-(1,1′-dimethyl-2′,6-dioxo-1,1′,2′,6-tetrahydro-[4,4′-bipyridin]-3-yl)-1H-pyrazol-1-yl)-4-methoxybenzonitrile], the IC50 was below 500 nM.
For `COc1ccc(-c2cc(=O)n(C)cc2-c2cnn(-c3cc(C#N)ccc3OC)c2)cn1` [Example 306, 4-Methoxy-3-[4-(6-methoxy-1′-methyl-6′-oxo-1′,6′-dihydro-[3,4′]bipyridinyl-3′-yl)-pyrazol-1-yl]-benzonitrile], the IC50 is below 500 nM.
Take `COc1ccc(C#N)cc1-n1cc(-c2cn(C)c(=O)cc2-c2ccc(Cl)cc2)cn1` [Example 307, 3-{4-[4-(4-Chloro-phenyl)-1-methyl-6-oxo-1,6-dihydro-pyridin-3-yl]-pyrazol-1-yl}-4-methoxy-benzonitrile]: the half-inhibitory concentration (IC50) is below 500 nM.
Under `COc1ccc(-c2cc(=O)n(C)cc2-c2cnn(C(C)c3ccccc3)c2)cn1` (centres unmarked) [Example 308, 6-methoxy-1′-methyl-5′-(1-(1-phenylethyl)-1H-pyrazol-4-yl)-[3,4′-bipyridin]-2′(1′H)-one] stands below 500 nM; under `CNc1ncc(-c2cc(=O)n(C)cc2-c2cnn(C(C)c3ccccc3)c2)cn1` (centres unmarked) [Example 309, 1-methyl-4-(2-(methylamino)pyrimidin-5-yl)-5-(1-(1-phenylethyl)-1H-pyrazol-4-yl)pyridin-2(1H)-one], below 500 nM.
Take `CC(c1ccccc1)n1cc(-c2cn(C)c(=O)cc2-c2ccn(C)c(=O)c2)cn1` (centres unmarked) [Example 310, 1,1′-dimethyl-5-(1-(1-phenylethyl)-1H-pyrazol-4-yl)-[4,4′-bipyridine]-2,2′(1H,1′H)-dione]: the IC50 was below 500 nM.
In the case of `CCNc1ncc(-c2cc(=O)n(C)cc2-c2cnn(C(C)c3ccccc3)c2)cn1` (centres unmarked) [Example 311], the IC50 is below 500 nM.
For the compound `COCCNc1ncc(-c2cc(=O)n(C)cc2-c2cnn(C(C)c3ccccc3)c2)cn1` (centres unmarked) [Example 312, 4-(2-((2-methoxyethyl)amino)pyrimidin-5-yl)-1-methyl-5-(1-(1-phenylethyl)-1H-pyrazol-4-yl)pyridin-2(1H)-one], the IC50 is below 500 nM.
With `CC(c1ccccc1)n1cc(-c2cn(C)c(=O)cc2-c2ccc(OCCCN(C)C)nc2)cn1` (centres unmarked) [Example 313, 6-(3-(dimethylamino)propoxy)-1′-methyl-5′-(1-(1-phenylethyl)-1H-pyrazol-4-yl)-[3,4′-bipyridin]-2′(1′H)-one], the IC50 is below 500 nM.
Under `Cn1ccc(-c2cc(=O)n(C)cc2-c2cnn(-c3ccccc3Cl)c2)cc1=O` [Example 314, 5-(1-(2-chlorophenyl)-1H-pyrazol-4-yl)-1,1′-dimethyl-[4,4′-bipyridine]-2,2′(1H,1′H)-dione] stands below 500 nM.
